Experiment: xn = mol fraction of the nth substance listed
Conditions: 101 kPa, Liquid, Vibrating tube method

Cc1cc(C)nc(C)c1 [2,4,6-trimethylpyridine] + CO
Conditions | mass density [kg/m3]
276.15 K, x1 = 0.0204 | 816.99
276.15 K, x1 = 0.0511 | 830.47
276.15 K, x1 = 0.0997 | 848.99
276.15 K, x1 = 0.194 | 875.69
276.15 K, x1 = 0.2957 | 895.63
276.15 K, x1 = 0.3884 | 907.79
276.15 K, x1 = 0.489 | 916.36
276.15 K, x1 = 0.5852 | 921.51
276.15 K, x1 = 0.6949 | 925.01
276.15 K, x1 = 0.7971 | 926.99
276.15 K, x1 = 0.8889 | 928.16
276.15 K, x1 = 1 | 928.45
277.15 K, x1 = 0.0204 | 816.06
277.15 K, x1 = 0.0511 | 829.54
277.15 K, x1 = 0.0997 | 848.07
277.15 K, x1 = 0.194 | 874.77
277.15 K, x1 = 0.2957 | 894.71
277.15 K, x1 = 0.3884 | 906.88
277.15 K, x1 = 0.489 | 915.47
277.15 K, x1 = 0.5852 | 920.64
277.15 K, x1 = 0.6949 | 924.15
277.15 K, x1 = 0.7971 | 926.14
277.15 K, x1 = 0.8889 | 927.31
277.15 K, x1 = 1 | 927.61
283.14 K, x1 = 0.2957 | 889.2
283.14 K, x1 = 0.3884 | 901.42
283.14 K, x1 = 0.5852 | 915.35
283.14 K, x1 = 0.7971 | 921.01
283.15 K, x1 = 0.0204 | 810.47
283.15 K, x1 = 0.0511 | 823.96
283.15 K, x1 = 0.0997 | 842.5
283.15 K, x1 = 0.194 | 869.23
283.15 K, x1 = 0.489 | 910.1
283.15 K, x1 = 0.6949 | 918.95
283.15 K, x1 = 0.8889 | 922.22
283.15 K, x1 = 1 | 922.54
288.15 K, x1 = 0.0204 | 805.79
288.15 K, x1 = 0.0511 | 819.3
288.15 K, x1 = 0.0997 | 837.86
288.15 K, x1 = 0.194 | 864.59
288.15 K, x1 = 0.2957 | 884.59
288.15 K, x1 = 0.3884 | 896.86
288.15 K, x1 = 0.489 | 905.6
288.15 K, x1 = 0.5852 | 910.93
288.15 K, x1 = 0.6949 | 914.61
288.15 K, x1 = 0.7971 | 916.72
288.15 K, x1 = 0.8889 | 917.96
288.15 K, x1 = 1 | 918.32
293.14 K, x1 = 0.0997 | 833.2
293.14 K, x1 = 1 | 914.08
293.15 K, x1 = 0.0204 | 801.11
293.15 K, x1 = 0.0511 | 814.63
293.15 K, x1 = 0.194 | 859.94
293.15 K, x1 = 0.2957 | 879.97
293.15 K, x1 = 0.3884 | 892.28
293.15 K, x1 = 0.489 | 901.1
293.15 K, x1 = 0.5852 | 906.5
293.15 K, x1 = 0.6949 | 910.25
293.15 K, x1 = 0.7971 | 912.41
293.15 K, x1 = 0.8889 | 913.69
298.14 K, x1 = 0.0511 | 809.94
298.14 K, x1 = 0.6949 | 905.88
298.14 K, x1 = 0.8889 | 909.41
298.15 K, x1 = 0.0204 | 796.41
298.15 K, x1 = 0.0997 | 828.52
298.15 K, x1 = 0.194 | 855.28
298.15 K, x1 = 0.2957 | 875.33
298.15 K, x1 = 0.3884 | 887.69
298.15 K, x1 = 0.489 | 896.57
298.15 K, x1 = 0.5852 | 902.05
298.15 K, x1 = 0.7971 | 908.1
298.15 K, x1 = 1 | 909.84
303.14 K, x1 = 0.7971 | 903.77
303.14 K, x1 = 0.8889 | 905.12
303.15 K, x1 = 0.0204 | 791.7
303.15 K, x1 = 0.0511 | 805.24
303.15 K, x1 = 0.0997 | 823.83
303.15 K, x1 = 0.194 | 850.6
303.15 K, x1 = 0.2957 | 870.67
303.15 K, x1 = 0.3884 | 883.08
303.15 K, x1 = 0.489 | 892.04
303.15 K, x1 = 0.5852 | 897.58
303.15 K, x1 = 0.6949 | 901.49
303.15 K, x1 = 1 | 905.58
308.14 K, x1 = 0.0997 | 819.11
308.14 K, x1 = 0.194 | 845.89
308.14 K, x1 = 0.3884 | 878.45
308.14 K, x1 = 0.489 | 887.48
308.14 K, x1 = 0.5852 | 893.1
308.14 K, x1 = 0.6949 | 897.08
308.14 K, x1 = 0.7971 | 899.42
308.15 K, x1 = 0.0204 | 786.96
308.15 K, x1 = 0.0511 | 800.51
308.15 K, x1 = 0.2957 | 865.99
308.15 K, x1 = 0.8889 | 900.82
308.15 K, x1 = 1 | 901.31
313.14 K, x1 = 0.0204 | 782.2
313.14 K, x1 = 0.0511 | 795.75
313.14 K, x1 = 0.0997 | 814.36
313.14 K, x1 = 0.489 | 882.9
313.14 K, x1 = 0.6949 | 892.65
313.15 K, x1 = 0.194 | 841.15
313.15 K, x1 = 0.2957 | 861.28
313.15 K, x1 = 0.3884 | 873.79
313.15 K, x1 = 0.5852 | 888.59
313.15 K, x1 = 0.7971 | 895.05
313.15 K, x1 = 0.8889 | 896.49
313.15 K, x1 = 1 | 897.03

Cc1cc(C)nc(C)c1 [2,4,6-trimethylpyridine] + OCCO
Conditions | mass density [kg/m3]
276.15 K, x1 = 0.0227 | 1116.64
276.15 K, x1 = 0.0509 | 1106.81
276.15 K, x1 = 0.1024 | 1090.72
276.15 K, x1 = 0.1996 | 1065.35
276.15 K, x1 = 0.2983 | 1043.61
276.15 K, x1 = 0.4014 | 1024.29
276.15 K, x1 = 0.4958 | 1008.47
276.15 K, x1 = 0.5984 | 991.05
276.15 K, x1 = 0.6974 | 975.68
276.15 K, x1 = 0.7927 | 959.81
276.15 K, x1 = 0.8896 | 944.84
277.15 K, x1 = 0.0227 | 1115.94
277.15 K, x1 = 0.0509 | 1106.1
277.15 K, x1 = 0.1996 | 1064.61
277.15 K, x1 = 0.2983 | 1042.81
277.15 K, x1 = 0.4014 | 1023.47
277.15 K, x1 = 0.4958 | 1007.63
277.15 K, x1 = 0.5984 | 990.18
277.15 K, x1 = 0.6974 | 974.81
277.15 K, x1 = 0.7927 | 958.95
277.15 K, x1 = 0.8896 | 944
277.16 K, x1 = 0.1024 | 1090
283.15 K, x1 = 0.0227 | 1111.72
283.15 K, x1 = 0.0509 | 1101.82
283.15 K, x1 = 0.1996 | 1060.1
283.15 K, x1 = 0.2983 | 1038.02
283.15 K, x1 = 0.4014 | 1018.5
283.15 K, x1 = 0.5984 | 985
283.15 K, x1 = 0.7927 | 953.81
283.15 K, x1 = 0.8896 | 938.89
283.16 K, x1 = 0.1024 | 1085.61
283.16 K, x1 = 0.4958 | 1002.53
283.16 K, x1 = 0.6974 | 969.63
288.15 K, x1 = 0.0227 | 1108.21
288.15 K, x1 = 0.0509 | 1098.26
288.15 K, x1 = 0.1024 | 1081.94
288.15 K, x1 = 0.1996 | 1056.23
288.15 K, x1 = 0.2983 | 1034.02
288.15 K, x1 = 0.4014 | 1014.34
288.15 K, x1 = 0.4958 | 998.27
288.15 K, x1 = 0.5984 | 980.68
288.15 K, x1 = 0.6974 | 965.31
288.15 K, x1 = 0.7927 | 949.52
288.15 K, x1 = 0.8896 | 934.64
293.14 K, x1 = 0.1024 | 1078.26
293.15 K, x1 = 0.0227 | 1104.68
293.15 K, x1 = 0.0509 | 1094.67
293.15 K, x1 = 0.1996 | 1052.33
293.15 K, x1 = 0.2983 | 1029.98
293.15 K, x1 = 0.4014 | 1010.15
293.15 K, x1 = 0.4958 | 993.97
293.15 K, x1 = 0.5984 | 976.33
293.15 K, x1 = 0.6974 | 960.96
293.15 K, x1 = 0.7927 | 945.2
293.15 K, x1 = 0.8896 | 930.36
298.14 K, x1 = 0.0227 | 1101.13
298.14 K, x1 = 0.0509 | 1091.07
298.14 K, x1 = 0.1024 | 1074.55
298.14 K, x1 = 0.2983 | 1025.93
298.14 K, x1 = 0.4958 | 989.66
298.14 K, x1 = 0.8896 | 926.07
298.15 K, x1 = 0.1996 | 1048.43
298.15 K, x1 = 0.4014 | 1005.94
298.15 K, x1 = 0.5984 | 971.96
298.15 K, x1 = 0.6974 | 956.59
298.15 K, x1 = 0.7927 | 940.86
303.15 K, x1 = 0.0227 | 1097.58
303.15 K, x1 = 0.0509 | 1087.45
303.15 K, x1 = 0.1024 | 1070.84
303.15 K, x1 = 0.1996 | 1044.52
303.15 K, x1 = 0.2983 | 1021.84
303.15 K, x1 = 0.4014 | 1001.71
303.15 K, x1 = 0.4958 | 985.33
303.15 K, x1 = 0.5984 | 967.57
303.15 K, x1 = 0.6974 | 952.2
303.15 K, x1 = 0.7927 | 936.51
303.15 K, x1 = 0.8896 | 921.76
308.14 K, x1 = 0.4014 | 997.46
308.14 K, x1 = 0.5984 | 963.16
308.15 K, x1 = 0.0227 | 1094.01
308.15 K, x1 = 0.0509 | 1083.83
308.15 K, x1 = 0.1024 | 1067.1
308.15 K, x1 = 0.1996 | 1040.64
308.15 K, x1 = 0.2983 | 1017.74
308.15 K, x1 = 0.4958 | 980.98
308.15 K, x1 = 0.6974 | 947.78
308.15 K, x1 = 0.7927 | 932.13
308.15 K, x1 = 0.8896 | 917.43
313.14 K, x1 = 0.1024 | 1063.34
313.14 K, x1 = 0.1996 | 1036.74
313.14 K, x1 = 0.2983 | 1013.62
313.14 K, x1 = 0.4014 | 993.19
313.14 K, x1 = 0.4958 | 976.61
313.14 K, x1 = 0.5984 | 958.73
313.15 K, x1 = 0.0227 | 1090.43
313.15 K, x1 = 0.0509 | 1080.18
313.15 K, x1 = 0.6974 | 943.35
313.15 K, x1 = 0.7927 | 927.74
313.15 K, x1 = 0.8896 | 913.09
